From PubChem BioAssay (NCI)
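Tested at 5 concentrations; 48 h exposure; 96-well plates; endpoints linearly interpolated, else capped at highest concentration. Abbreviation: GI50, concentration required for 50% inhibition of growth. At the TGI there is no net growth.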

Assays:
Test in all cases: NCI tumour cell line growth inhibition, 48 h
786-0 renal = test system: 786-0 renal
A498 renal = test system: A498 renal
A549 NSCLC = test system: A549 NSCLC
ACHN renal = test system: ACHN renal
BT-549 breast = test system: BT-549 breast
CAKI-1 renal = test system: CAKI-1 renal
COLO 205 colon = test system: COLO 205 colon
DU-145 prostate = test system: DU-145 prostate
EKVX NSCLC = test system: EKVX NSCLC
HCT-116 colon = test system: HCT-116 colon
HCT-15 colon = test system: HCT-15 colon
HOP-62 NSCLC = test system: HOP-62 NSCLC
HOP-92 NSCLC = test system: HOP-92 NSCLC
HT29 colon = test system: HT29 colon
IGROV1 ovarian = test system: IGROV1 ovarian
K-562 leukemia = test system: K-562 leukemia
KM12 colon = test system: KM12 colon
LOX IMVI melanoma = test system: LOX IMVI melanoma
M14 melanoma = test system: M14 melanoma
MALME-3M melanoma = test system: MALME-3M melanoma
MDA-MB-231 breast = test system: MDA-MB-231 breast
MDA-MB-435 = test system: MDA-MB-435
MOLT-4 leukemia = test system: MOLT-4 leukemia
NCI-H226 lung = test system: NCI-H226 lung
NCI-H23 lung = test system: NCI-H23 lung
NCI-H460 lung = test system: NCI-H460 lung
NCI-H522 lung = test system: NCI-H522 lung
NCI/ADR-RES ovarian = test system: NCI/ADR-RES ovarian
OVCAR-3 ovarian = test system: OVCAR-3 ovarian
OVCAR-4 ovarian = test system: OVCAR-4 ovarian
OVCAR-5 ovarian = test system: OVCAR-5 ovarian
OVCAR-8 ovarian = test system: OVCAR-8 ovarian
RPMI-8226 leukemia = test system: RPMI-8226 leukemia
RXF 393 renal = test system: RXF 393 renal
SF-268 CNS = test system: SF-268 CNS
SF-295 CNS = test system: SF-295 CNS
SF-539 CNS = test system: SF-539 CNS
SK-MEL-28 melanoma = test system: SK-MEL-28 melanoma
SK-MEL-5 melanoma = test system: SK-MEL-5 melanoma
SK-OV-3 ovarian = test system: SK-OV-3 ovarian
SN12C renal = test system: SN12C renal
SNB-19 CNS = test system: SNB-19 CNS
SNB-75 CNS = test system: SNB-75 CNS
SW-620 colon = test system: SW-620 colon
T-47D breast = test system: T-47D breast
TK-10 renal = test system: TK-10 renal
U251 CNS = test system: U251 CNS
UACC-257 melanoma = test system: UACC-257 melanoma
UO-31 renal = test system: UO-31 renal
CCRF-CEM leukemia = test system: CCRF-CEM leukemia
HCC-2998 colon = test system: HCC-2998 colon
HL-60(TB) leukemia = test system: HL-60(TB) leukemia
HS 578T breast = test system: HS 578T breast
MCF7 breast = test system: MCF7 breast
PC-3 prostate = test system: PC-3 prostate
SK-MEL-2 melanoma = test system: SK-MEL-2 melanoma
SR leukemia = test system: SR leukemia
UACC-62 melanoma = test system: UACC-62 melanoma

## CC(=O)[C@@H]1C/C(=C\OCc2ccccc2)O[C@H]1C
786-0 renal
  TGI: > 100 µM
A498 renal
  TGI: > 100 µM
A549 NSCLC
  TGI: > 100 µM
ACHN renal
  TGI: > 100 µM
BT-549 breast
  TGI: > 100 µM
CAKI-1 renal
  TGI: > 100 µM
COLO 205 colon
  TGI: > 100 µM
DU-145 prostate
  TGI: > 100 µM
EKVX NSCLC
  TGI: > 100 µM
HCT-116 colon
  TGI: > 100 µM
HCT-15 colon
  TGI: > 100 µM
HOP-62 NSCLC
  TGI: > 100 µM
HOP-92 NSCLC
  TGI: > 100 µM
HT29 colon
  TGI: > 100 µM
IGROV1 ovarian
  TGI: > 100 µM
K-562 leukemia
  TGI: > 100 µM
KM12 colon
  TGI: > 100 µM
LOX IMVI melanoma
  TGI: > 100 µM
M14 melanoma
  TGI: > 100 µM
MALME-3M melanoma
  TGI: > 100 µM
MDA-MB-231 breast
  TGI: > 100 µM
MDA-MB-435
  TGI: > 100 µM
MOLT-4 leukemia
  TGI: > 100 µM
NCI-H226 lung
  TGI: > 100 µM
NCI-H23 lung
  TGI: > 100 µM
NCI-H460 lung
  TGI: > 100 µM
NCI-H522 lung
  TGI: > 100 µM
NCI/ADR-RES ovarian
  TGI: > 100 µM
OVCAR-3 ovarian
  TGI: > 100 µM
OVCAR-4 ovarian
  TGI: > 100 µM
OVCAR-5 ovarian
  TGI: > 100 µM
OVCAR-8 ovarian
  TGI: > 100 µM
RPMI-8226 leukemia
  TGI: > 100 µM
RXF 393 renal
  TGI: > 100 µM
SF-268 CNS
  TGI: > 100 µM
SF-295 CNS
  TGI: > 100 µM
SF-539 CNS
  TGI: > 100 µM
SK-MEL-28 melanoma
  TGI: > 100 µM
SK-MEL-5 melanoma
  TGI: > 100 µM
SK-OV-3 ovarian
  TGI: > 100 µM
SN12C renal
  TGI: > 100 µM
SNB-19 CNS
  TGI: > 100 µM
SNB-75 CNS
  TGI: > 100 µM
SW-620 colon
  TGI: > 100 µM
T-47D breast
  TGI: > 100 µM
TK-10 renal
  TGI: > 100 µM
U251 CNS
  TGI: > 100 µM
UACC-257 melanoma
  TGI: > 100 µM
UO-31 renal
  TGI: > 100 µM

## COc1cc(-c2ccc(-c3ccc(C(=N)N)nc3)s2)cc(OC)c1OC
786-0 renal
  GI50: 2.12 µM
  TGI: 3.93 µM
A498 renal
  GI50: 4.9 µM
  TGI: 18.2 µM
A549 NSCLC
  GI50: 2.06 µM
  TGI: 4.51 µM
ACHN renal
  GI50: 1.73 µM
  TGI: 3.14 µM
BT-549 breast
  GI50: 1.67 µM
  TGI: 3.49 µM
CAKI-1 renal
  GI50: 1.59 µM
  TGI: 3.19 µM
CCRF-CEM leukemia
  GI50: 2.49 µM
  TGI: 7.41 µM
COLO 205 colon
  GI50: 1.6 µM
  TGI: 3.26 µM
DU-145 prostate
  GI50: 3.45 µM
  TGI: 12.1 µM
EKVX NSCLC
  GI50: 5.19 µM
  TGI: 18.2 µM
HCC-2998 colon
  GI50: 2 µM
  TGI: 3.9 µM
HCT-116 colon
  GI50: 1.47 µM
  TGI: 2.87 µM
HCT-15 colon
  GI50: 2.18 µM
  TGI: 6.41 µM
HL-60(TB) leukemia
  GI50: 1.87 µM
  TGI: 4.21 µM
HOP-62 NSCLC
  GI50: 2.79 µM
  TGI: 11.5 µM
HOP-92 NSCLC
  GI50: 1.91 µM
  TGI: 8.37 µM
HS 578T breast
  GI50: 2.59 µM
  TGI: 8.52 µM
HT29 colon
  GI50: 1.37 µM
  TGI: 5.68 µM
IGROV1 ovarian
  GI50: 2.63 µM
  TGI: 6.2 µM
K-562 leukemia
  GI50: 1.39 µM
  TGI: 4.46 µM
KM12 colon
  GI50: 2.78 µM
  TGI: 10.5 µM
LOX IMVI melanoma
  GI50: 1.87 µM
  TGI: 3.48 µM
M14 melanoma
  GI50: 1.66 µM
  TGI: 3.33 µM
MALME-3M melanoma
  GI50: 1.53 µM
  TGI: 3 µM
MCF7 breast
  GI50: 1.3 µM
  TGI: 3.24 µM
MDA-MB-231 breast
  GI50: 1.85 µM
  TGI: 4.2 µM
MDA-MB-435
  GI50: 1.62 µM
  TGI: 3.05 µM
MOLT-4 leukemia
  GI50: 2.53 µM
  TGI: 6.9 µM
NCI-H226 lung
  GI50: 10.8 µM
  TGI: 31.1 µM
NCI-H23 lung
  GI50: 6.4 µM
  TGI: 22.6 µM
NCI-H460 lung
  GI50: 2.1 µM
  TGI: 4.39 µM
NCI-H522 lung
  GI50: 1.8 µM
  TGI: 4.14 µM
NCI/ADR-RES ovarian
  GI50: 5.2 µM
  TGI: 24.1 µM
OVCAR-3 ovarian
  GI50: 2.6 µM
  TGI: 6.35 µM
OVCAR-4 ovarian
  GI50: 2.69 µM
  TGI: 10.4 µM
OVCAR-5 ovarian
  GI50: 2.1 µM
  TGI: 5.38 µM
OVCAR-8 ovarian
  GI50: 2.3 µM
  TGI: 5.23 µM
PC-3 prostate
  GI50: 3.11 µM
  TGI: 12.7 µM
RPMI-8226 leukemia
  GI50: 1.67 µM
  TGI: 3.97 µM
RXF 393 renal
  GI50: 2.19 µM
  TGI: 4.83 µM
SF-268 CNS
  GI50: 14.6 µM
  TGI: 33.2 µM
SF-539 CNS
  GI50: 1.61 µM
  TGI: 3.01 µM
SK-MEL-2 melanoma
  GI50: 2.09 µM
  TGI: 4.35 µM
SK-MEL-28 melanoma
  GI50: 1.62 µM
  TGI: 3.18 µM
SK-MEL-5 melanoma
  GI50: 1.67 µM
  TGI: 3.08 µM
SK-OV-3 ovarian
  GI50: 13.1 µM
  TGI: 26 µM
SN12C renal
  GI50: 2.05 µM
  TGI: 4.71 µM
SNB-19 CNS
  GI50: 4.73 µM
  TGI: 16.3 µM
SNB-75 CNS
  GI50: 1.5 µM
  TGI: 5.16 µM
SR leukemia
  GI50: 2.48 µM
SW-620 colon
  GI50: 2.09 µM
  TGI: 5.24 µM
TK-10 renal
  GI50: 3.19 µM
  TGI: 9.35 µM
U251 CNS
  GI50: 1.74 µM
  TGI: 3.53 µM
UACC-257 melanoma
  GI50: 2.15 µM
  TGI: 4.07 µM
UACC-62 melanoma
  GI50: 1.73 µM
  TGI: 3.3 µM
UO-31 renal
  GI50: 1.88 µM
  TGI: 3.4 µM
